From patent publication US6992079B2, “Substituted 11-phenyl-dibenzazepine compounds useful for the treatment or prevention of diseases characterized by abnormal cell proliferation” (President Fellows of Harvard College, priority 1997, dated 2006)
Where two headings read alike, the source gives them in different places. Marks after values point to notes of the source that are not given here.

Columns and labels:
[1] = system: MDA-MB-23; assay: SRB antiproliferative assay; type: cell-based; details: Homo sapiens, MDA-MB-23
Text: (§1) The cells were passaged using Trypsin (Gibco).

[2] = system: MMRU; assay: SRB antiproliferative assay; type: cell-based; details: Homo sapiens
Text: as §1

[3] = Preliminary toxicology, subcutaneous injection for 14 days; type: in vivo, CD-1 female mice; details: CD-1 female mice; 80 mg/kg/day s.c. 14 days
Description: The toxicological effects of CLT, and compounds 28, 30 and 31 were tested in CD-1 female mice. A dose of 80 mg/kg/day was given to each mouse via subcutaneous injection for a period of 14 days. Preliminary toxicological data was determined by measuring body weight, gross pathology of organs blood chemistry and histology. The vehicle used was DMF 12%+2% Tween 20 88%.

[4] = system: RL-60 (TS); assay: In-Vitro Testing SRB panel: Leukemia; type: cell-based; details: 48 h
[5] = system: ROP-92; type: cell-based; details: 48 h
[6] = system: NCI-H226; type: cell-based; details: NCI-H226, 48 h
[7] = system: SF-268; assay: In-Vitro Testing SRB panel: CNS Cancer; type: cell-based; details: SF-268, 48 h
[8] = system: M14; assay: In-Vitro Testing SRB panel: Melanoma; type: cell-based; details: M14, 48 h
[9] = system: UACC-257; assay: In-Vitro Testing SRB panel: Melanoma; type: cell-based; details: UACC-257, 48 h
[10] = system: IGROV1; assay: In-Vitro Testing SRB panel: Ovarian Cancer; type: cell-based
[11] = system: OVCAR-8; assay: In-Vitro Testing SRB panel: Ovarian Cancer; type: cell-based; details: OVCAR-8, 48 h
[12] = system: SK-OV-3; assay: In-Vitro Testing SRB panel: Ovarian Cancer; type: cell-based; details: SK-OV-3, 48 h
[13] = system: A498; assay: In-Vitro Testing SRB panel: Renal Cancer; type: cell-based; details: A498, 48 h
[14] = system: RXF 393; assay: In-Vitro Testing SRB panel: Renal Cancer; type: cell-based; details: RXF 393, 48 h
[15] = system: SN12C; assay: In-Vitro Testing SRB panel: Renal Cancer; type: cell-based; details: 48 h
[16] = system: MDA-MB-231/ATCC; assay: In-Vitro Testing SRB panel: Breast Cancer; type: cell-based
[17] = system: ERVX; details: 48 h
[18] = Homo sapiens, read-out: LC50 (the source's name)

O=C(c1ccc([N+](=O)[O-])cc1)N1Cc2ccccc2C(c2ccccc2Cl)c2ccccc21 (stereo not drawn) [Compound 28, N-(4′-Nitrobenzoyl)-11-(2′-chlorophenyl)-5,6-dihydro-11H-dibenz[b,e]azepine]
IC50 [1]: 0.5 µM | IC50 ([2]; MMRU (Melanoma), 5% FCS/5 day incubation): 0.2 µM | IC50 ([2]; MMRU, 5% FCS/3 days): < 1.25 µM | Body Weight Change [3]: 107% | Liver Weight [3]: 1.51 ± 0.08^c g | RBC [3]: 8.1 ± 0.6 10^6/mm^3 | WBC [3]: 7.5 ± 0.8 10^3/mm^3 | WBC, RBC, BUN and creatine levels [3]: no differences were found | GI50 ([4]; Homo sapiens): 0.489 µM | CC50 ([4]; Homo sapiens, RL-60 (TS), read-out: LC50 (the source's name)): > 100 µM | TGI ([4]; RL-60 (TS)): 7.71E−05 Molar | Percent Growth ([4]; RL-60 (TS), log10 conc −4.0 Molar): 1% | Percent Growth ([4]; RL-60 (TS), log10 conc −5.0 Molar): 5% | Percent Growth ([4]; RL-60 (TS), log10 conc −6.0 Molar): 41% | Percent Growth ([4]; RL-60 (TS), log10 conc −7.0 Molar): 71% | Percent Growth ([4]; RL-60 (TS), log10 conc −8.0 Molar): 76% | GI50 ([5]; Homo sapiens): 7.51 µM | CC50 ([5]; Homo sapiens, ROP-92, read-out: LC50 (the source's name)): > 100 µM | TGI ([5]; ROP-92): >1.00E−04 Molar | Percent Growth ([5]; ROP-92, log10 conc −4.0 Molar): 19% | Percent Growth ([5]; ROP-92, log10 conc −5.0 Molar): 46% | Percent Growth ([5]; ROP-92, log10 conc −6.0 Molar): 79% | Percent Growth ([5]; ROP-92, log10 conc −7.0 Molar): 104% | Percent Growth ([5]; ROP-92, log10 conc −8.0 Molar): 100% | GI50 ([6]; Homo sapiens): 7.96 µM | CC50 [6, 18]: > 100 µM | TGI [6]: >1.00E−04 Molar | Percent Growth ([6]; log10 conc −4.0 Molar): 33% | Percent Growth ([6]; log10 conc −5.0 Molar): 48% | Percent Growth ([6]; log10 conc −6.0 Molar): 66% | Percent Growth ([6]; log10 conc −7.0 Molar): 83% | Percent Growth ([6]; log10 conc −8.0 Molar): 90% | GI50 ([7]; Homo sapiens): 1.66 µM | CC50 [7, 18]: > 100 µM | TGI [7]: >1.00E−04 Molar | Percent Growth ([7]; log10 conc −4.0 Molar): 19% | Percent Growth ([7]; log10 conc −5.0 Molar): 34% | Percent Growth ([7]; log10 conc −6.0 Molar): 55% | Percent Growth ([7]; log10 conc −7.0 Molar): 81% | Percent Growth ([7]; log10 conc −8.0 Molar): 94% | GI50 ([8]; Homo sapiens): 0.941 µM | CC50 [8, 18]: > 100 µM | TGI [8]: 2.19E−05 Molar | Percent Growth ([8]; log10 conc −4.0 Molar): −32% | Percent Growth ([8]; log10 conc −5.0 Molar): 16% | Percent Growth ([8]; log10 conc −6.0 Molar): 49% | Percent Growth ([8]; log10 conc −7.0 Molar): 85% | Percent Growth ([8]; log10 conc −8.0 Molar): 94% | GI50 ([9]; Homo sapiens): 0.441 µM | CC50 [9, 18]: > 100 µM | TGI [9]: >1.00E−04 Molar | Percent Growth ([9]; log10 conc −4.0 Molar): 6% | Percent Growth ([9]; log10 conc −5.0 Molar): 9% | Percent Growth ([9]; log10 conc −6.0 Molar): 35% | Percent Growth ([9]; log10 conc −7.0 Molar): 78% | Percent Growth ([9]; log10 conc −8.0 Molar): 81% | GI50 ([10]; Homo sapiens, IGROV-1, 48 h): 1.88 µM | CC50 ([10]; Homo sapiens, IGROV-1, IGROV1, 48 h, read-out: LC50 (the source's name)): > 100 µM | TGI ([10]; IGROV1, 48 h): >1.00E−04 Molar | Percent Growth ([10]; IGROV1, log10 conc −4.0 Molar, 48 h): 25% | Percent Growth ([10]; IGROV1, log10 conc −5.0 Molar, 48 h): 34% | Percent Growth ([10]; IGROV1, log10 conc −6.0 Molar, 48 h): 56% | Percent Growth ([10]; IGROV1, log10 conc −7.0 Molar, 48 h): 97% | Percent Growth ([10]; IGROV1, log10 conc −8.0 Molar, 48 h): 102% | GI50 ([11]; Homo sapiens): 2.86 µM | CC50 [11, 18]: > 100 µM | TGI [11]: >1.00E−04 Molar | Percent Growth ([11]; log10 conc −4.0 Molar): 28% | Percent Growth ([11]; log10 conc −5.0 Molar): 33% | Percent Growth ([11]; log10 conc −6.0 Molar): 64% | Percent Growth ([11]; log10 conc −7.0 Molar): 102% | Percent Growth ([11]; log10 conc −8.0 Molar): 105% | GI50 ([12]; Homo sapiens): 8.31 µM | CC50 [12, 18]: > 100 µM | TGI [12]: >1.00E−04 Molar | Percent Growth ([12]; log10 conc −4.0 Molar): 36% | Percent Growth ([12]; log10 conc −5.0 Molar): 47% | Percent Growth ([12]; log10 conc −6.0 Molar): 79% | Percent Growth ([12]; log10 conc −7.0 Molar): 97% | Percent Growth ([12]; log10 conc −8.0 Molar): 97% | TGI [13]: >1.00E−04 Molar | Percent Growth ([13]; log10 conc −4.0 Molar): 15% | Percent Growth ([13]; log10 conc −5.0 Molar): 57% | Percent Growth ([13]; log10 conc −6.0 Molar): 81% | Percent Growth ([13]; log10 conc −7.0 Molar): 93% | Percent Growth ([13]; log10 conc −8.0 Molar): 97% | GI50 ([13]; Homo sapiens): 14.4 µM | CC50 [13, 18]: > 100 µM | GI50 ([14]; Homo sapiens): 1.39 µM | CC50 [14, 18]: > 100 µM | TGI [14]: 7.75E−06 Molar | Percent Growth ([14]; log10 conc −4.0 Molar): −12% | Percent Growth ([14]; log10 conc −5.0 Molar): −7% | Percent Growth ([14]; log10 conc −6.0 Molar): 60% | Percent Growth ([14]; log10 conc −7.0 Molar): 98% | Percent Growth ([14]; log10 conc −8.0 Molar): 99% | TGI [15]: >1.00E−04 Molar | GI50 ([15]; Homo sapiens): 4.52 µM | CC50 [15, 18]: > 100 µM | Percent Growth ([15]; log10 conc −4.0 Molar): 23% | Percent Growth ([15]; log10 conc −5.0 Molar): 36% | Percent Growth ([15]; log10 conc −6.0 Molar): 77% | Percent Growth ([15]; log10 conc −7.0 Molar): 103% | Percent Growth ([15]; log10 conc −8.0 Molar): 100% | GI50 ([16]; Homo sapiens, MDA-MB-231, 48 h): 4.94 µM | CC50 ([16]; Homo sapiens, MDA-MB-231/ATCC, 48 h, read-out: LC50 (the source's name)): > 100 µM | TGI ([16]; MDA-MB-231/ATCC, 48 h): >1.00E−04 Molar | Percent Growth ([16]; MDA-MB-231/ATCC, log10 conc −4.0 Molar, 48 h): 22% | Percent Growth ([16]; MDA-MB-231/ATCC, log10 conc −5.0 Molar, 48 h): 36% | Percent Growth ([16]; MDA-MB-231/ATCC, log10 conc −6.0 Molar, 48 h): 72% | Percent Growth ([16]; MDA-MB-231/ATCC, log10 conc −7.0 Molar, 48 h): 96% | Percent Growth ([16]; MDA-MB-231/ATCC, log10 conc −8.0 Molar, 48 h): 103% | TGI ([17]; ERVX): >1.00E−04 Molar | Percent Growth ([17]; ERVX, log10 conc −4.0 Molar): 23% | Percent Growth ([17]; ERVX, log10 conc −5.0 Molar): 24% | Percent Growth ([17]; ERVX, log10 conc −6.0 Molar): 51% | Percent Growth ([17]; ERVX, log10 conc −7.0 Molar): 93% | Percent Growth ([17]; ERVX, log10 conc −8.0 Molar): 85% | GI50 ([17]; Homo sapiens): 1.13 µM | CC50 ([17]; Homo sapiens, read-out: LC50): > 100 µM
